This note sets out measurements from ChEMBL document CHEMBL1201862, “PubChem BioAssay data set” (2004).

Each structure is given as a SMILES string.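 Cultured in 96-well plates, cells were exposed to test compound for 48 hours across five concentrations. GI50 = concentration required for 50% inhibition of growth.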 Calls of active or inactive are those of the source. Rule as the data show it: active = GI50 up to about 1.1 µM and inactive = higher. A value given as a limit tells only on which side of the number the result lay.

Some test systems named below: DLD-1; DMS-114; DMS-273; HOP-18; KM-20L2; LXFL 529; M19-MEL; XF498; RXF 631.
Holding throughout (experiment): NCI tumour cell line growth inhibition, 48 h

As to `Cc1cc(C)nc(NS(=O)(=O)c2ccc(Nc3c4ccccc4nc4c(C(=O)Nc5ccc(S(N)(=O)=O)cc5)cccc34)cc2)n1`, the GI50 in the assay on DLD-1 was 71.8 µM (inactive); in the assay with DMS-114, > 100 µM (inactive); with DMS-273 it was 92.5 µM (inactive); in the assay with HOP-18 it was 51.6 µM (inactive); in the assay on KM-20L2 it was > 100 µM (inactive); with LXFL 529 it was 88.9 µM (inactive). Moreover, the GI50 in the assay with M19-MEL was 94.2 µM (inactive); with XF498 it was > 100 µM (inactive).

In the case of `CC(Oc1ccc(OCC2CCCCC2)cc1)C(=O)O` (stereo not drawn), the GI50 in the assay on DLD-1, in the assay on DMS-114, with DMS-273, in the assay on HOP-18, in the assay on LXFL 529 and with M19-MEL was > 100 µM (inactive) each time. In the assay on XF498, the GI50 is > 100 µM (inactive).

Regarding `Cc1cc2occ(-c3ccc(Cl)cc3)c2c(=O)o1`, the GI50 in the assay on DLD-1 is 76 µM (inactive); in the assay on DMS-114 it was > 100 µM (inactive); with DMS-273, > 100 µM (inactive); in the assay with HOP-18, > 100 µM (inactive); in the assay on KM-20L2, > 100 µM (inactive); in the assay with LXFL 529, > 100 µM (inactive). Besides, the GI50 in the assay on RXF 631 is > 100 µM (inactive).

`O=C(Nc1nc2ncn(CCI)c2c(=O)[nH]1)c1ccccc1`: the GI50 with DMS-273 is > 100 µM (inactive); with HOP-18, > 56.1 µM (inactive); in the assay with KM-20L2 it was > 100 µM (inactive); with LXFL 529, > 100 µM (inactive); with M19-MEL, > 100 µM (inactive); with RXF 631, > 100 µM (inactive). In addition, the GI50 in the assay on XF498 is 20.4 µM (inactive).

Regarding `Cc1c(-c2coc(-c3ccc(Cl)cc3)n2)c(=O)n(-c2ccccc2)n1C`, the GI50 in the assay on DLD-1 is > 100 µM (inactive); in the assay on DMS-273, > 100 µM (inactive); in the assay on KM-20L2, > 100 µM (inactive); with LXFL 529 it was > 100 µM (inactive); with M19-MEL it was > 100 µM (inactive); in the assay on XF498 it was 19.1 µM (inactive).

As for `COc1cc2c(c(O)c1C)C(=O)C(Cl)=CC2=O`, the GI50 in the assay on DLD-1 is 17.4 µM (inactive); in the assay with DMS-114, 16.6 µM (inactive); with DMS-273, 19.2 µM (inactive); with HOP-18, 16.5 µM (inactive); in the assay on KM-20L2 it was 23.1 µM (inactive); in the assay with LXFL 529 it was 7.43 µM (inactive). Further, the GI50 in the assay with M19-MEL was 7.98 µM (inactive); in the assay with RXF 631, 12.1 µM (inactive); in the assay on XF498, 20 µM (inactive).

For `CCCCc1c2c(nc3c1CCc1cc(C=O)c(N)nc1-3)/C(=C/c1ccccc1)CCC2`, the GI50 in the assay on DMS-114, in the assay on DMS-273, with HOP-18, with KM-20L2, with LXFL 529 and with M19-MEL was > 100 µM (inactive) in each case. Moreover, in the assay with XF498, the GI50 was 44.4 µM (inactive).

For `Cc1ccc(Sc2ccccc2N)cc1`, the GI50 in the assay with DMS-114 was 43.4 µM (inactive); in the assay with DMS-273 it was 30.8 µM (inactive); in the assay on HOP-18, 77.8 µM (inactive); in the assay on KM-20L2, 39.9 µM (inactive); in the assay with LXFL 529, 16.8 µM (inactive); in the assay on M19-MEL it was 41.6 µM (inactive). The GI50 in the assay on RXF 631 was 29 µM (inactive).

Regarding `C[S+]([O-])c1cc(=O)c2ccccc2s1` (stereo not drawn), the GI50 with DLD-1 is 2.14 µM (inactive); in the assay on DMS-114, 4.2 µM (inactive); in the assay on DMS-273, 8.67 µM (inactive); with HOP-18, 10.3 µM (inactive); in the assay with KM-20L2, 6.25 µM (inactive); with LXFL 529 it was 1.54 µM (inactive). The results for the GI50 in the assay with M19-MEL and with XF498 were 6.03 µM (inactive) and 4.1 µM (inactive), respectively.

On to `CC(=O)OC12C(C)=C(C)C(=O)N1c1ccccc1N2C(C)=O` (stereo not drawn), for which the GI50 in the assay with DMS-273, with HOP-18, in the assay with KM-20L2, in the assay on LXFL 529, in the assay with M19-MEL and in the assay on XF498 was > 100 µM (inactive) in each case.

For the compound `CCc1cccc(C(C)C)c1NC(=O)CCl`, the GI50 with DLD-1 is > 100 µM (inactive); with DMS-273, > 100 µM (inactive); in the assay with KM-20L2 it was > 100 µM (inactive); in the assay on LXFL 529, > 100 µM (inactive); in the assay with M19-MEL, 58.3 µM (inactive); in the assay with RXF 631, 19.7 µM (inactive). In addition, the GI50 with XF498 is > 100 µM (inactive).

Consider `CCN(CCCl)CCCNc1c2ccccc2nc2ccc(OC)cc12`, for which the GI50 is 0.084 µM (active) in the assay on DLD-1; 0.314 µM (active) with DMS-114; 0.059 µM (active) with DMS-273; 0.181 µM (active) in the assay with KM-20L2; 0.0912 µM (active) with LXFL 529; 0.216 µM (active) in the assay with M19-MEL. The GI50 in the assay on XF498 is 0.116 µM (active).

On to `Cc1ccccc1NC(=O)C(=O)C(C(=O)c1ccccc1F)C1OC(=O)c2ccccc21` (stereo not drawn), for which the GI50 is 22.2 µM (inactive) in the assay with DLD-1; 10.2 µM (inactive) in the assay on DMS-114; 23.3 µM (inactive) in the assay with DMS-273; 23.4 µM (inactive) in the assay on HOP-18; 38.3 µM (inactive) in the assay with KM-20L2; 13.4 µM (inactive) in the assay with LXFL 529. Besides, in the assay with RXF 631, the GI50 is 26.9 µM (inactive).

With `CC1OC(CC2C=CCc3c(O)c4c(c(O)c32)C(=O)c2ccccc2C4=O)CC(NC(=O)C(F)(F)F)C1O` (stereo not drawn), the GI50 is 7.38 µM (inactive) in the assay on DLD-1; 10 µM (inactive) with DMS-114; 6.32 µM (inactive) with DMS-273; 16.3 µM (inactive) in the assay with KM-20L2; 6.87 µM (inactive) in the assay with LXFL 529; 8.22 µM (inactive) in the assay with M19-MEL. Besides, the GI50 with XF498 was 1.91 µM (inactive).

Take `CCC12C=CCN3CCC4(C(=C(C(=O)OC)[C@@H]1O)Nc1ccccc14)C32` (stereo partly drawn): the GI50 with DLD-1 was 1.67 µM (inactive); in the assay with DMS-114, 1.69 µM (inactive); in the assay with DMS-273, 1.69 µM (inactive); in the assay with HOP-18, 1.71 µM (inactive); in the assay on KM-20L2, 1.84 µM (inactive); in the assay with LXFL 529, 1.66 µM (inactive). Besides, the values for the GI50 in the assay on M19-MEL and in the assay on XF498 were 1.74 µM (inactive) and 1.63 µM (inactive), respectively.

Take `CC(O)C(NC(=O)c1ccccc1)C(=O)N(Cc1ccccc1)Cc1ccccc1` (stereo not drawn): the GI50 in the assay on DLD-1 is > 100 µM (inactive); in the assay on DMS-114, > 100 µM (inactive); in the assay on DMS-273, > 100 µM (inactive); in the assay with HOP-18, 37 µM (inactive); in the assay with KM-20L2, > 100 µM (inactive); with LXFL 529, > 100 µM (inactive). The GI50 in the assay with M19-MEL, in the assay with RXF 631 and in the assay on XF498 was > 100 µM (inactive) throughout.

Regarding `c1ccc(C(c2ccccc2)c2ccncc2)cc1`, the GI50 with DLD-1, with DMS-114, with DMS-273, in the assay on HOP-18, in the assay with KM-20L2 and with M19-MEL was > 100 µM (inactive) in each case. In addition, the GI50 in the assay on RXF 631 and in the assay on XF498 was > 100 µM (inactive) throughout.

`CC(=O)OCSc1ncnc2c1ncn2CN1CCOCC1`: the GI50 in the assay with DLD-1 was 6.55 µM (inactive); with DMS-114, 6.53 µM (inactive); in the assay with DMS-273 it was 5.11 µM (inactive); in the assay with HOP-18, 40.1 µM (inactive); in the assay on KM-20L2 it was 7.59 µM (inactive); in the assay with LXFL 529 it was > 100 µM (inactive). For the same compound, in the assay on M19-MEL, the GI50 is 59 µM (inactive).

Turning to `CCOC(=O)NC/C=C/CO`, the GI50 in the assay on DLD-1, with DMS-114, in the assay on DMS-273, with HOP-18, in the assay on KM-20L2 and with LXFL 529 was > 100 µM (inactive) each time. Besides, the GI50 in the assay on M19-MEL and with RXF 631 was > 100 µM (inactive) throughout.

As for `Oc1cc2c(cc1O)-c1[nH]ncc1CC2`, the GI50 was 52.5 µM (inactive) with DLD-1; 16.5 µM (inactive) with DMS-114; 42.1 µM (inactive) in the assay with DMS-273; 6.15 µM (inactive) in the assay on HOP-18; 38.5 µM (inactive) in the assay on KM-20L2; 31.3 µM (inactive) in the assay on LXFL 529. Moreover, the values for the GI50 in the assay on M19-MEL and with XF498 were 40.7 µM (inactive) and 27.6 µM (inactive), respectively.

`COc1ccc(OC)c(/C=N/N=C(\N)NO)c1`: the GI50 with DLD-1 is 17.2 µM (inactive); in the assay on DMS-114, 14.9 µM (inactive); in the assay on DMS-273 it was 6.31 µM (inactive); in the assay on LXFL 529 it was 4.57 µM (inactive); with M19-MEL, 61 µM (inactive); in the assay with RXF 631 it was 37.6 µM (inactive). Besides, the GI50 with XF498 was 18 µM (inactive).

In the case of `OC1(C(Sc2ccccc2)Sc2ccccc2)CCCCCC1`, the GI50 with DLD-1 was 38.4 µM (inactive); in the assay with DMS-114 it was 27.1 µM (inactive); in the assay on DMS-273 it was 27.8 µM (inactive); in the assay on KM-20L2 it was 2.81 µM (inactive); with M19-MEL it was 35.2 µM (inactive); in the assay with XF498 it was 13.6 µM (inactive).

Take `CC(=O)OC1CCC2C(=CCC3C2(C)C(=O)CC2(C)C(C4(C)OC(C(C)C)=CC4=O)C(O)CC32C)C1(C)C` (stereo not drawn): the GI50 with DLD-1 is 32.5 µM (inactive); with DMS-114, 25.8 µM (inactive); in the assay with DMS-273, 23.3 µM (inactive); in the assay on KM-20L2 it was 17.9 µM (inactive); in the assay on LXFL 529 it was 31.3 µM (inactive); with M19-MEL it was 12.6 µM (inactive). The GI50 in the assay with XF498 was 31.3 µM (inactive).
